Experimental data published in US4418077A, “Fluorinated amino-butyric acid and diaminobutane derivatives” (Merrell Toraude et Compagnie, priority 1980, dated 1983).

What was measured:
Type in all cases: in vivo
[1] = system: brain GABA; test: GABA content of brain of mice after four daily i.p. doses; conditions: brain 24 hours after last dose
Protocol: (§1) A group of 10 male albino CD1 mice from Charles Riner, France, is given an i.p. injection of the test compound in aqueous solution daily for four consecutive days. Half of the animals are killed by decapitation 24 hours after the last dose fo the test compound. The other half of the animals are observed for up to 12 days for toxicity (as indicated by weight loss and deaths). Control animals receive an injection of the vehicle only.
(§2) The brains are removed from the dead mice and are divided into two portions by sagittal section. One half is used for the measurement of GABA-T activity while the other is used for measuring GABA content. The GABA-T activity is measured using known methods as described by M. Jung et al., J. Neurochem., 28, 717 (1977) and 29, 797 (1977), GABA content is measured by perchloric acid or trichloroacetic acid extracts using an amino acid analyzer equiped with a fluoresence detector.

[2] = system: GABA-T; test: GABA-T activity in brain of mice after four daily i.p. doses; conditions: brain 24 hours after last dose
Protocol: as §1, §2

[3] = Toxicity in mice (weight loss and deaths), observed up to 12 days; conditions: mouse, in vivo, ip, daily dose 1 mg/kg for 4 days, observed up to 12 days, read-out: Mortality (After Treatment)
Protocol: as §1

[4] = system: mice; test: as above; conditions: i.p.
Protocol: as §1

[5] = daily dose 2.5 mg/kg for 4 days

With NC(CF)C(F)C(=O)O (stereo not drawn) [2,4-difluoro-3-amino-butyric acid, 2,4-DIFLUORO-3-AMINO-BUTYRIC ACID] the “GABA Elevation (%)” value ([1]; daily dose 1 mg/kg for 4 days) was 150%, the “GABA Elevation (%)” value [1, 5] was 225% and the “GABA Elevation (%)” value ([1]; daily dose 5 mg/kg for 4 days) was 250%. For the same compound, the “GABA-T Inhibition (%)” value ([2]; daily dose 1 mg/kg for 4 days) was 50%, the “GABA-T Inhibition (%)” value [2, 5] was 83% and the “GABA-T Inhibition (%)” value ([2]; daily dose 5 mg/kg for 4 days) was 87%. For the same compound, the mortality at 288 h [3] was 0%, the “Weight Loss %” value ([4]; daily dose 1 mg/kg for 4 days) was 0% and the “Weight Loss %” value [4, 5] was -5%. The “Mortality (After Treatment)” value ([4]; daily dose 2.5 mg/kg for 4 days, deaths by day 6) was 2/5, the “Weight Loss %” value ([4]; daily dose 5 mg/kg for 4 days) was -25% and the “Mortality (After Treatment)” value ([4]; daily dose 5 mg/kg for 4 days, deaths by day 7) was 5/5.
